Assay results: patent US6867207B2, “IL-5 inhibiting 6-azauracil derivatives” (Janssen Pharmaceutica N.V., priority 1997, dated 2005)

tested on: IL-5 production; assay: In vitro inhibition of IL-5 production in human blood (phytohemagglutinin-stimulated whole blood, ELISA); format: cell-based; settings: test dose 1×10^−6 M, 48 hours;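 further: values marked with an asterisk were tested at 10 µM and unmarked values at 1 µM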
Method: In Vitro Inhibition of IL-5 Production in Human Blood
Human Whole Blood Stimulation
Peripheral blood from healthy male donors was drawn into heparinized syringes (12.5 U heparin/ml). Blood samples were three-fold diluted in RMPI 1640 medium (Life Technologies, Belgium) supplemented with 2 mM L-glutamine, 100 U/ml penicillin and 100 μg/ml streptomycin, and 300 μl fractions were distributed in 24-well multidisc plates. Blood samples were preincubated (60 minutes at 37° C.) in a humidified 6% CO2-atmosphere with 100 μl of drug solvent (final concentration 0.02% dimethylsulfoxide in RPMI 1640) or with 100 μl of an appropriate dose of test compound before being stimulated by the addition of 100 μl of phytohemagglutinin HA17 (Murex, UK) at a final concentration of 2 μg/ml. After 48 hours, cell-free supernatant fluids were collected by centrifugation and stored at −70° C. until tested for the presence of IL-5.
IL-5 measurements were conducted as described in Van Wauwe et al. (1996, Inflamm Res, 45, 357-363) on page 358 using ELISA.
Table 9 lists the percentage inhibition of IL-5 production (column “% inh”) at a test dose of 1×10^−6 M, or in case the percentage inhibition is marked with an “*” 1×10^−5 M, the compounds of the present invention.

Structure (SMILES)	% inh. (percentage inhibition of IL-5 production) [%]
COC(C)c1sc(C(c2ccc(Cl)cc2)c2c(Cl)cc(-n3ncc(=O)[nH]c3=O)cc2Cl)nc1-c1ccccc1 (mixture of isomers) [Comp 315]	93
CN1CCCC(c2nnc(C(c3ccc(Cl)cc3)c3c(Cl)cc(-n4ncc(=O)[nH]c4=O)cc3Cl)o2)C1 (mixture of isomers) [Compound 196]	35
Cc1nc(C(c2ccc(Cl)cc2)c2c(Cl)cc(-n3ncc(=O)[nH]c3=O)cc2Cl)sc1C (racemic) [Comp 16]	89
CC(c1ccc(Cl)cc1)(c1nc(-c2ccccc2)c(-c2ccccc2)s1)c1c(Cl)cc(-n2ncc(=O)[nH]c2=O)cc1Cl (racemic) [Comp 18]	88
O=c1cnn(-c2cc(Cl)c(C(c3ccc(Cl)cc3)c3nc(-c4cccc(Cl)c4)cs3)c(Cl)c2)c(=O)[nH]1 (racemic) [Comp 19]	83
O=c1cnn(-c2cc(Cl)c(C(c3ccc(Cl)cc3)c3nc(-c4cccc(C(F)(F)F)c4)cs3)c(Cl)c2)c(=O)[nH]1 (racemic) [Comp 20]	70
O=c1cnn(-c2cc(Cl)c(C(c3ccc(Cl)cc3)c3nc(-c4cccc(F)c4)cs3)c(Cl)c2)c(=O)[nH]1 (racemic) [Comp 21]	91
Cc1cccc(-c2csc(C(c3ccc(Cl)cc3)c3c(Cl)cc(-n4ncc(=O)[nH]c4=O)cc3Cl)n2)c1 (racemic) [Comp 22]	93
CC(c1ccc(Cl)c(C(F)(F)F)c1)(c1nc(-c2ccccc2)cs1)c1c(Cl)cc(-n2ncc(=O)[nH]c2=O)cc1Cl (racemic) [Comp 23]	83
COc1cccc(-c2csc(C(c3ccc(Cl)cc3)c3c(Cl)cc(-n4ncc(=O)[nH]c4=O)cc3Cl)n2)c1 (racemic) [Comp 24]	74
COc1ccc(Br)c(-c2csc(C(c3ccc(Cl)cc3)c3c(Cl)cc(-n4ncc(=O)[nH]c4=O)cc3Cl)n2)c1 (racemic) [Comp 25]	88
O=c1cnn(-c2cc(Cl)c(C(c3ccc(Cl)cc3)c3nc(-c4ccc(O)cc4)cs3)c(Cl)c2)c(=O)[nH]1 (racemic) [Comp 26]	85
CCOC(=O)c1csc(C(c2ccc(Cl)cc2)c2c(Cl)cc(-n3ncc(=O)[nH]c3=O)cc2Cl)n1 (racemic) [Comp 27]	64
O=c1cnn(-c2cc(Cl)c(C(c3ccc(Cl)cc3)c3nc(-c4ccc(Cl)c(Cl)c4)cs3)c(Cl)c2)c(=O)[nH]1 (racemic) [Comp 28]	73
CCOC(=O)c1sc(C(c2ccc(Cl)cc2)c2c(Cl)cc(-n3ncc(=O)[nH]c3=O)cc2Cl)nc1-c1ccccc1 (racemic) [Comp 29]	95
O=c1cnn(-c2cc(Cl)c(C(c3ccc(Cl)cc3)c3nc(-c4ccc(-c5ccccc5)cc4)cs3)c(Cl)c2)c(=O)[nH]1 (racemic) [Comp 30]	57
O=c1cnn(-c2cc(Cl)c(C(c3ccc(Cl)cc3)c3nc(-c4cccs4)cs3)c(Cl)c2)c(=O)[nH]1 (racemic) [Comp 31]	93
O=c1cnn(-c2cc(Cl)c(C(c3ccc(Cl)cc3)c3nc(-c4ccccc4Cl)cs3)c(Cl)c2)c(=O)[nH]1 (racemic) [Comp 32]	90
O=c1cnn(-c2ccc(C(O)(c3ccc(Cl)cc3)c3nc(-c4ccccc4)cs3)c(Cl)c2)c(=O)[nH]1 (racemic) [Comp 34]	58
O=c1cnn(-c2ccc(C(c3ccc(Cl)cc3)n3cncn3)c(Cl)c2)c(=O)[nH]1 (racemic) [Comp 97]	26
O=c1cnn(-c2ccc(C(c3ccc(Cl)cc3)c3nnc(-c4ccccc4)o3)c(Cl)c2)c(=O)[nH]1 (racemic) [Comp 101]	66
Cc1nnc(C(c2ccc(Cl)cc2)c2ccc(-n3ncc(=O)[nH]c3=O)cc2Cl)o1 (racemic) [Comp 102]	14
O=c1cnn(-c2ccc(C(c3ccc(Cl)cc3)c3ncc(-c4ccccc4)o3)c(Cl)c2)c(=O)[nH]1 (racemic) [Comp 103]	63
CC(c1ccc(Cl)cc1)(c1nnc(-c2ccccc2)o1)c1ccc(-n2ncc(=O)[nH]c2=O)cc1Cl (racemic) [Comp 104]	60

Structure (SMILES)	% inh. (percentage inhibition of IL-5 production) [%]
O=c1cnn(-c2cc(Cl)c(C(c3ccc(Cl)cc3)c3ncc(-c4ccccc4)o3)c(Cl)c2)c(=O)[nH]1 (racemic) [Comp 105]	88
CC(c1ccc(Cl)cc1)(c1nc(-c2ccccc2)no1)c1ccc(-n2ncc(=O)[nH]c2=O)cc1Cl (racemic) [Comp 106]	77
O=c1cnn(-c2ccc(C(c3ccc(Cl)cc3)c3noc(-c4ccccc4)n3)c(Cl)c2)c(=O)[nH]1 (racemic) [Comp 107]	81
Cn1ccnc1C(c1ccc(Cl)cc1)c1c(Cl)cc(-n2ncc(=O)[nH]c2=O)cc1Cl (racemic) [Comp 109]	35
CCc1sc(C(c2ccc(Cl)cc2)c2c(Cl)cc(-n3ncc(=O)[nH]c3=O)cc2Cl)nc1-c1ccccc1 (racemic) [Comp 224]	95
O=c1cnn(-c2cc(Cl)c(C(c3ccc(Cl)cc3)c3nc(Cc4ccccc4)cs3)c(Cl)c2)c(=O)[nH]1 (racemic) [Comp 225]	80
O=c1cnn(-c2cc(Cl)c(C(c3ccc(Cl)c(C(F)(F)F)c3)c3nc(-c4ccccc4)cs3)c(Cl)c2)c(=O)[nH]1 (racemic) [Comp 226]	93
CC(c1ccc(Cl)c(Cl)c1)(c1nc(-c2ccccc2)cs1)c1c(Cl)cc(-n2ncc(=O)[nH]c2=O)cc1Cl (racemic) [Comp 227]	78
CC(c1ccc(Cl)c(Cl)c1)(c1nc(-c2ccccc2)c(-c2ccccc2)s1)c1c(Cl)cc(-n2ncc(=O)[nH]c2=O)cc1Cl (racemic) [Comp 228]	81
Cc1sc(C(C)(c2ccc(Cl)c(Cl)c2)c2c(Cl)cc(-n3ncc(=O)[nH]c3=O)cc2Cl)nc1-c1ccccc1 (racemic) [Comp 233]	84
Cc1sc(C(C)(c2ccc(Cl)c(C(F)(F)F)c2)c2c(Cl)cc(-n3ncc(=O)[nH]c3=O)cc2Cl)nc1-c1ccccc1 (racemic) [Comp 234]	83
Cc1cc(C(C)(c2ccc(Cl)c(C(F)(F)F)c2)c2nc(-c3ccccc3)cs2)c(Cl)cc1-n1ncc(=O)[nH]c1=O (racemic) [Comp 235]	79
O=c1cnn(-c2cc(Cl)c(C(c3ccc(Cl)cc3)c3nc(-c4ccco4)cs3)c(Cl)c2)c(=O)[nH]1 (racemic) [Comp 236]	92
CC(c1ccc(Cl)c(C(F)(F)F)c1)(c1nc(-c2ccccc2)c(-c2ccccc2)s1)c1c(Cl)cc(-n2ncc(=O)[nH]c2=O)cc1Cl (racemic) [Comp 237]	82
Cc1cc(C(C)(c2ccc(Cl)c(C(F)(F)F)c2)c2nc(-c3ccccc3)c(C)s2)c(Cl)cc1-n1ncc(=O)[nH]c1=O (racemic) [Comp 238]	74
CC(c1ccc(Cl)c(C(F)(F)F)c1)(c1nc(-c2ccccc2)cs1)c1ccc(-n2ncc(=O)[nH]c2=O)cc1Cl (racemic) [Comp 239]	72
CN(C)Cc1csc(C(c2ccc(Cl)cc2)c2c(Cl)cc(-n3ncc(=O)[nH]c3=O)cc2Cl)n1 (racemic) [Comp 240]	54
O=c1cnn(-c2cc(Cl)c(C(c3ccc(Cl)cc3)c3nc(-c4ccccc4F)cs3)c(Cl)c2)c(=O)[nH]1 (racemic) [Comp 242]	98
Cc1ccccc1-c1csc(C(c2ccc(Cl)cc2)c2c(Cl)cc(-n3ncc(=O)[nH]c3=O)cc2Cl)n1 (racemic) [Comp 243]	97
O=c1cnn(-c2cc(Cl)c(C(c3ccc(Cl)cc3)c3nc(-c4ccccc4Br)cs3)c(Cl)c2)c(=O)[nH]1 (racemic) [Comp 244]	95
CCCc1sc(C(c2ccc(Cl)cc2)c2c(Cl)cc(-n3ncc(=O)[nH]c3=O)cc2Cl)nc1-c1ccccc1 (racemic) [Comp 245]	98
Cc1sc(C(c2ccc(Cl)c(C(F)(F)F)c2)c2c(Cl)cc(-n3ncc(=O)[nH]c3=O)cc2Cl)nc1-c1ccccc1 (racemic) [Comp 246]	94
Cc1cc(C(C)(c2nc(-c3ccccc3)cs2)c2ccc(-n3ncc(=O)[nH]c3=O)cc2Cl)ccc1Cl (racemic) [Comp 247]	80
